{"source": "patent US20230364065A1", "about": "“ANTIBIOTIC COMBINATION THERAPIES” (BIOVERSYS AG, priority 2022, published 2023)", "key": {"[1]": {"system": "A. baumannii Pop1 and Pop2 strains", "assay": "Rifabutin MIC of the strains used for time-kill curves", "type": "cell-based", "details": "Acinetobacter baumannii"}, "[2]": {"system": "A. baumannii Pop1 and Pop2 strains", "assay": "Time kill curves in CAMHB with 0.1 mM PIH", "type": "cell-based, Acinetobacter baumannii", "experimental": "Based on the data of EXAMPLE 1, the bactericidal activity and the resistance development of rifabutin and of fixed rifabutin/polymyxin concentrations was assessed in time-kill curve experiments. […] FIGS. 3 and 4 show kill curve experiments on two different A. baumannii strains (Pop 1 and Pop2) having very different rifabutin MICs.\nBased on the data of EXAMPLE 2, the bactericidal activity and the resistance development of rifabutin/polymyxin B was assessed in time kill curve experiments using a lower concentration of rifabutin and additional strains. Concentrations were fixed at 0.03 mg/L for rifabutin (on average, one thirty-second the rifabutin MIC90), and at 0.125 or 0.06 mg/L for polymyxin B (one fourth and one eighth the fCtrough of polymyxin B).\nTime-kill kinetics were performed in CAMHB supplemented with 0.1 mM PIH medium. Rifabutin was tested at 0.25 mg/L with or without the specified concentration of a polymyxin agent. Samples were taken at 0, 2, 4, 8 and 24 hours in order to determine the colony forming units (cfu). Bactericidal activity is defined as ≥3-log reduction in cfu compared to the cfu present in the inoculum (0 hours)."}, "[3]": {"system": "carbapenem-resistant Acinetobacter baumannii (CRAB)", "details": "MHA/PIH, cited from earlier work"}, "[4]": {"system": "A. baumannii clinical isolates", "assay": "Rifabutin MIC with a fixed polymyxin concentration, broth microdilution in CAMHB/PIH", "type": "cell-based, Acinetobacter baumannii", "experimental": "(§1) The MIC90 (the maximum Minimal Inhibitory Concentration which inhibits growth of 90% of the strains of a test panel) of rifabutin is 2 or 1 mg/L when tested respectively in RPMI/FCS for broth microdilution or MHA/PIH for agar dilution against a panel of 293 carbapenem-resistant Acinetobacter baumannii (CRAB) (Trebosc V, et al. 2020. In vitro activity of rifabutin against 293 contemporary carbapenem-resistant Acinetobacter baumannii clinical isolates and characterization of rifabutin mode of action and resistance mechanisms. J Antimicrob Chemother. 75(12):3552-3562, incorporated herein by reference). […] At these respective polymyxin concentrations, no strains, 3% of the strains, and <5% of the strains would be susceptible to the respective polymyxin. FIG. 1 illustrates the cumulative index and MIC50 and MIC90 of rifabutin in the presence of members of the polymyxin family of antibiotics at sub MIC (sub trough concentrations) showing the synergistic effect discussed above.\n(§2) In vitro activity of rifabutin against 293 contemporary carbapenem-resistant Acinetobacter baumannii clinical isolates and characterization of rifabutin mode of action and resistance mechanisms. J Antimicrob Chemother. 75(12):3552-3562, incorporated herein by reference in its entirety). […] FIG. 2 illustrates the MIC distribution of rifabutin in the presence of members of the polymyxin family of antibiotics at sub MIC (sub trough concentrations) showing the synergistic effect discussed above.\nThe rifabutin MICs in combination with a fixed concentration of the specified polymyxin were determined by broth microdilution method according to the CLSI guideline. The medium used to determine the MICs was cation-adjusted Muller Hinton broth (CAMHB) supplemented with 0.1 mM of pyridoxal isonicotinoyl hydrazone (PIH). […] Accordingly, the MIC values were set at the first lowest rifabutin concentration preventing growth as assessed by visual inspection of the assay plate."}, "[5]": {"system": "carbapenem-resistant Acinetobacter baumannii (CRAB)", "details": "RPMI/FCS, broth microdilution, panel of 293 CRAB; cited from earlier work"}, "[6]": {"system": "A. baumannii clinical isolates", "assay": "Susceptibility of panel strains to the polymyxin alone", "type": "cell-based, Acinetobacter baumannii", "details": "for number of strains with MIC>2 mg/L towards the polymyxin: polymyxin alone; for strains susceptible to the polymyxin at the fixed concentration: polymyxin alone at 0.125 mg/L", "experimental": "as §1, §2"}, "[7]": {"details": "Example 2, colistin or polymyxin B alone at 0.125 or 0.03 mg/L, Pop 1 and Pop2 strains"}}, "note": "Where two headings read alike, the source gives them in different places.", "data": [{"molecule": "CO[C@H]1/C=C/O[C@@]2(C)Oc3c(C)c(O)c4c(c3C2=O)C2=NC3(CCN(CC(C)C)CC3)NC2=C(NC(=O)/C(C)=C\\C=C\\[C@H](C)[C@H](O)[C@@H](C)[C@@H](O)[C@@H](C)[C@H](OC(C)=O)[C@@H]1C)C4=O", "note": "[rifabutin, Rifabutin]", "values": [{"measurement": "MIC", "setting": "[1]; A. baumannii Pop 1 strain of FIG. 3", "result": 0.016, "unit": "µg/mL"}, {"measurement": "MIC", "setting": "[1]; A. baumannii Pop2 strain of FIG. 4", "result": 1, "unit": "µg/mL"}, {"measurement": "MIC", "setting": "[1]; ATCC17978, Pop 1 strain ATCC 17978", "result": 0.008, "unit": "µg/mL"}, {"measurement": "MIC", "setting": "[1]; Pop 1 strain HUMC1", "result": 0.002, "unit": "µg/mL"}, {"measurement": "MIC", "setting": "[1]; Pop2 strain LAC-4", "result": 1, "unit": "µg/mL"}, {"measurement": "MIC", "setting": "[1]; Pop2 strain UNT238-1", "result": 2, "unit": "µg/mL"}, {"measurement": "bactericidal activity in time-kill curves", "setting": "[2]; Example 2, rifabutin alone at 0.25 mg/L, Pop 1 and Pop2 strains", "result": "either poorly bactericidal or allow for regrowth"}, {"measurement": "bactericidal activity in time-kill curves", "setting": "[2]; Example 3, rifabutin alone at 0.03 mg/L, Pop1 and Pop2 strains", "result": "either poorly bactericidal or allowed for regrowth"}, {"measurement": "strains in population 1 (rifabutin MICs<0.125 mg/L)", "setting": "[3]; 293 CRAB", "result": 72, "unit": "%"}, {"measurement": "strains in population 2 (rifabutin MICs≥0.125 to <16 mg/L)", "setting": "[3]; 293 CRAB", "result": 27, "unit": "%"}, {"measurement": "strains in population 3 (rifabutin MICs≥16 mg/L)", "setting": "[3]; 293 CRAB", "result": 1, "unit": "%"}, {"measurement": "MIC90 of rifabutin", "setting": "[3]; agar dilution, panel of 293 CRAB", "result": 1, "unit": "µg/mL"}, {"measurement": "strains having a rifabutin MIC≤1 mg/L in the presence of a polymyxin", "setting": "[4]; CAMHB/PIH broth microdilution, about one-quarter of the fCtrough of the polymyxin", "result": 99, "unit": "%"}, {"measurement": "MIC90 of rifabutin in the presence of a polymyxin", "setting": "[4]; CAMHB/PIH broth microdilution, with 0.125 mg/L polymyxin B, 0.125 mg/L colistin or 0.03 mg/L SPR206 (about one-quarter of fCtrough)", "result": "0.06 to 0.25", "unit": "µg/mL"}, {"measurement": "fold lowering of rifabutin MIC90 in the presence of a polymyxin", "setting": "[4]; subinhibitory concentrations of a polymyxin antibiotic", "result": "up to 32 fold"}, {"measurement": "MIC90 of rifabutin", "setting": "[5]", "result": 2, "unit": "µg/mL"}]}, {"molecule": "SPR206 acetate", "values": [{"measurement": "bactericidal activity in time-kill curves", "setting": "[2]; Example 2, SPR206 alone at 0.03 mg/L, Pop 1 and Pop2 strains", "result": "either poorly bactericidal or allow for regrowth"}, {"measurement": "number of strains with MIC>2 mg/L towards the polymyxin", "setting": "[6]", "result": 18, "unit": "strains"}]}, {"molecule": "colistin sulfate", "values": [{"measurement": "bactericidal activity in time-kill curves", "setting": "[2]; [7]", "result": "either poorly bactericidal or allow for regrowth"}, {"measurement": "number of strains with MIC>2 mg/L towards the polymyxin", "setting": "[6]", "result": 45, "unit": "strains"}, {"measurement": "strains susceptible to the polymyxin at the fixed concentration", "setting": "[6]", "result": 3, "unit": "%"}]}, {"molecule": "polymyxin B sulfate", "values": [{"measurement": "bactericidal activity in time-kill curves", "setting": "[2]; [7]", "result": "either poorly bactericidal or allow for regrowth"}, {"measurement": "bactericidal activity in time-kill curves", "setting": "[2]; Example 3, polymyxin B alone at 0.125 or 0.06 mg/L, Pop1 and Pop2 strains", "result": "either poorly bactericidal or allowed for regrowth"}, {"measurement": "number of strains with MIC>2 mg/L towards the polymyxin", "setting": "[6]", "result": 40, "unit": "strains"}, {"measurement": "strains susceptible to the polymyxin at the fixed concentration", "setting": "[6]", "result": "no strains"}]}]}
